Earlier results in patent publication US20100113581A1, “COMBINATION THERAPIES FOR THE TREATMENT OF OBESITY” (priority 2008, published 2010).

Key:
[1] = published studies of weight loss medications
[2] = cyclodextrin derivatives

Molecule | weight loss of body weight for drug compared with placebo [1] | solubility in water [2]
CCN[C@@H](C)Cc1cccc(C(F)(F)F)c1 [dexfenfluramine] | about 5% | 
CCCCCCCCCCC[C@@H](C[C@@H]1OC(=O)[C@H]1CCCCCC)OC(=O)[C@H](CC(C)C)NC=O [orlistat] | about 5% | 
CC(C)CC(N(C)C)C1(c2ccc(Cl)cc2)CCC1 (centres unmarked) [sibutramine] | about 5% | 
G-2-beta-cyclodextrin |  | 147 % (w/v)
triacetyl-beta-cyclodextrin |  | insoluble
